Source: patent US20060188576A1, “Pirenzepine ophthalmic gel” (priority 2001, published 2006)
Counter-ions that a name gives are not always drawn. Like-named read-outs stand apart in the source and are kept apart here.

Tests used:
[1] = solution in up to 2% strength, topical ocular, adult volunteers; cited from earlier work
chick model of myopia = conditions: subconjunctival injections; cited from earlier work
[2] = Stability of pirenzepine in solution; format: physicochemical; conditions: pH 5
myopia [3] = conditions: stump-tailed monkeys; cited from earlier work
myopia [4] = conditions: chicks; cited from earlier work
myopia [5] = conditions: tree shrews; cited from earlier work
myopia [6] = conditions: cited from earlier work

Row | Structure (SMILES) | comfort and systemic effects [1] | axial eye growth (chick model of myopia) | stability in solution [2] | development of myopia (myopia [3]) | development of myopia (myopia [4]) | development of myopia (myopia [5]) | development of myopia (myopia [6]; humans) | effectiveness as myopia therapy (myopia [6]; mild cycloplegic agent, several studies)
1 | CN1CCN(CC(=O)N2c3ccccc3C(=O)Nc3cccnc32)CC1 [Pirenzepine, 5,11-dihydro-11-[(4-methyl-1-piperazinyl)acetyl]-6H pyrido [2,3-b][1,4]-benzodiazepin-6-one dihydrochloride monohydrate] | comfortable and without systemic effects | attenuated axial eye growth | stable in solution especially at pH 5 |  |  |  |  | 
2 | CN1[C@@H]2CC[C@H]1C[C@@H](OC(=O)C(CO)c1ccccc1)C2 (stereo partly drawn) [atropine] |  | attenuated axial eye growth |  | prevents the development of myopia | prevents the development of myopia | prevents the development of myopia | prevents the development of myopia | 
3 | CCN(Cc1ccncc1)C(=O)C(CO)c1ccccc1 (stereo not drawn) [tropicamide] |  |  |  |  |  |  |  | effective in a number of studies but failed in other studies
